# Where “and” joins values, the source holds several entries; their conditions need not be identical. Equal entries are not always repeated.
# Biological target: NK1 receptor (Homo sapiens, UniProt P25103)
# Assay: NK1 receptor binding: inhibition of the NK1 agonist Substance P, Ki from percent of maximum specific binding
# Settings: inhibition constant from the concentration giving 50% inhibition of binding (Chang-Prusoff equation)
# Description: The in vitro and in vivo NK1, NK2 and NK3 activities of the compounds having the formula (I) can be determined by various procedures known in the art, such as a test for their ability to inhibit the activity of the NK1 agonist Substance P. The percent inhibition of neurokinin agonist activity is the difference between the percent of maximum specific binding (“MSB”) and 100%. The percent of MSB is defined by the following equation, wherein “dpm” represents “disintegrations per minute”:
# [formula] The concentration at which the compound produces 50% inhibition of binding is then used to determine an inhibition constant (“Ki”) using the Chang-Prusoff equation. In vivo activity may be measured by inhibition of an agonist-induced foot tapping in a gerbil, as described in Science, 281, 1640–1695 (1998), which is herein incorporated by reference thereto.
# Sequence of NK1 receptor (P25103 whole entry, species assumed): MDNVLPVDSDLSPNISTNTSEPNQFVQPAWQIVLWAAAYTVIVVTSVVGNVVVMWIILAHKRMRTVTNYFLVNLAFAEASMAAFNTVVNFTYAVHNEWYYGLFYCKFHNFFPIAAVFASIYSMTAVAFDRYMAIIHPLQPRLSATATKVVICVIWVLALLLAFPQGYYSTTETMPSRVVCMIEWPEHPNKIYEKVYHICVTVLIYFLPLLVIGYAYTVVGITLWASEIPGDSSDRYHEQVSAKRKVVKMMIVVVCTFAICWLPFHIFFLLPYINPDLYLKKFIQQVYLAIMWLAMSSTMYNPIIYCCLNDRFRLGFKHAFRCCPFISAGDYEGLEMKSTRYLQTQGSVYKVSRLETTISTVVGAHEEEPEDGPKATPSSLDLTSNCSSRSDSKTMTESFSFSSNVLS
row,Ki,SMILES
1,0.3 to 3 nM,O=C1CCCN1N1CCC(COCc2cc(C(F)(F)F)cc(C(F)(F)F)c2)(c2ccccc2)CC1 [Example 49]
2,0.3 to 3 nM,O=C1NCCN1N1CCC(COCc2cc(C(F)(F)F)cc(C(F)(F)F)c2)(c2ccccc2)CC1 [Example 51]
3,0.3 to 3 nM and ~0.3 nM,C[C@@H](OCC1(c2ccccc2)CCN(N2CCCC2=O)CC1)c1cc(C(F)(F)F)cc(C(F)(F)F)c1 [Example 56]
4,0.3 to 3 nM,O=C1CCCN1N1CCC(COC(CO)c2cc(C(F)(F)F)cc(C(F)(F)F)c2)(c2ccccc2)CC1 (centres unmarked) [Example 57]
5,0.3 to 3 nM,O=c1[nH]ncn1N1CCC(COCc2cc(C(F)(F)F)cc(C(F)(F)F)c2)(c2ccccc2)CC1 [Example 64]
